Measured values reported in paper PMC12575728, “Galactose-modified small molecule modulator targets RORα to enhance circadian rhythm and alleviate periodontitis-associated alveolar bone loss” (Bone Research, 2025).
Values after ≈ are worked out from the molar mass of the structure shown. Like-named read-outs stand apart in the source and are kept apart here.

Legend:
[1] = Pharmacokinetic studies in mice (IP and IV); assay type: in vivo; conditions: for AUC / Cmax / Tmax / half-life / concentration at 8 h / bioavailability / MRT inf: male, C57BL/6 J, mouse, plasma; for concentration at 8 h: read-out: mean plasma concentration 8 h after injection; for bioavailability: intraperitoneal, IP versus IV
RORα = molecular target: T1, RORα (Homo sapiens, UniProt P35398); assay: G6Pase and FGF21 mRNA in HEK293T cells after RORα knockdown by siRNA; assay type: cell-based; conditions: 5 μmol/L, 24 h
T1 construct: HEK293T cells co-transfected with a full-length RORα gene and a luciferase reporter gene; expressed in transfected cells; host or cells: HEK293T
T1 sequence (P35398 1-523): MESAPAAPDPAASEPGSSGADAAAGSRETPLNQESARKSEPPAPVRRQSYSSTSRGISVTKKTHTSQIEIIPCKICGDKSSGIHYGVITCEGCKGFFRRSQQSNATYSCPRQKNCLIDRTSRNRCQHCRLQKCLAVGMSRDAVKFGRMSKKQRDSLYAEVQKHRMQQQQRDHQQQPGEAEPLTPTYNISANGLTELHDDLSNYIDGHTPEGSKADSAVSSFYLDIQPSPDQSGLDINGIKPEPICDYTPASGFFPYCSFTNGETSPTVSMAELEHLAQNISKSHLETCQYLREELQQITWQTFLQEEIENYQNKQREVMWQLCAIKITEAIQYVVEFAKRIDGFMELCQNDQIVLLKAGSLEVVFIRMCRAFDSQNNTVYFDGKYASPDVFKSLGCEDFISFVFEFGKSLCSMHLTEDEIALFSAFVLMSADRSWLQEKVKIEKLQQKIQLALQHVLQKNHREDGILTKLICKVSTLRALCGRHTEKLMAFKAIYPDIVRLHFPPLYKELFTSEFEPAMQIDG
Protocol: RNA from liver, periodontal tissues and cell samples was prepared as previously described. Total RNA (1 ug) was synthesized into cDNA using […] (Vazyme). mRNA expression levels were normalized to GAPDH. Relative expression levels and enrichment contents were calculated using the comparative Ct Method. Primer information is detailed in Data file S1.

[2] = Body weight changes in mice after IP administration; assay type: in vivo; conditions: 10 and 50 mg/kg, 7 days
Protocol: After U2OS cells were treated with various concentrations (0 ~ 50 μM) of SR1078,
Body weight changes (%) in […]

C57 mice = assay: Mouse locomotor assay; assay type: in vivo; conditions: 10 mg/kg IP at ZT11, D:D, compared to DMSO
Protocol: WT C57BL/6 J mice at the age of 2 months old were entrained under a 12-h /12-h […] at 24 °C for 2 weeks.[36] One week after mouse clock synchronization to the ambient light/dark cycle, SR1078, Gala-SR or dimethyl sulfoxide (DMSO) was dissolved in saline and intraperitoneally injected (10 mg/kg) into mice 1 h before light off (ZT11). […] SR1078, Gala-SR or DMSO was injected again 24 h later. After 2 weeks of continuous recording, locomotor activity was analyzed with ClockLab software (Actimetrics) following the procedures described previously34.

[3] = tested on: Per2-dLuc and Bmal1-dLuc U2OS cells; assay: Real-time bioluminescence monitoring of Per2-dLuc and Bmal1-dLuc U2OS cells; assay type: cell-based, human; conditions: for dose dependence of the enhancing effect on the amplitude of BMAL1: Bmal1-dLuc U2OS cells, 1-10 μM; for fluctuation degree (amplitude) of bioluminescence intensity / period or phase of the bioluminescence / overall bioluminescence levels: Bmal1-dLuc and Per2-dLuc U2OS cells, 2 μmol/L; for overall bioluminescence levels: vs DMSO
Protocol: Two clonal circadian reporter cell lines, Bmal1-dLuc and Per2-dLuc, were established and used in this study.[36] These two cell lines display robust cellular rhythmicity with near anti-phasic oscillation of bioluminescence expression. The lentivirus preparation, transduction of U2OS cells and selection of the knockout candidates with puromycin (at […] concentration) were performed using a previously published protoco.[37] LumiCycle (Actimetrics, Inc., Evanston, IL) detect for U2OS cells stably expressing Bmal1-dLuc and Per2-dLuc cells were seeded on an opaque 24-well plate. When the cells are full, which were treated with dexamethasone (DEX) (100 nmol/L final) for 2 h for resetting, 2 h later, the media of cells were replaced with bioluminescence recording media having DMEM culture medium (Gibco 21063029, 500 mL), 70 mL 12% FBS. Luciferin (0.1 mmol/L final) was added fresh to the bioluminescence media. Molecules at determined concentrations were supplied to the recording media (final DMSO concentration is 0.1%).

RORγ = molecular target: T2, RORγ (Homo sapiens, UniProt P51449); assay: Luciferase reporter assay (G6Pase or FGF21 promoter) in HEK293T cells cotransfected with RORγ; assay type: cell-based; conditions: 5 μmol/L; for luminescence intensity of G6Pase and FGF21 reporter genes: compared to DMSO
T2 construct: expressed in transfected cells; host or cells: HEK293T
T2 sequence (P51449 1-518): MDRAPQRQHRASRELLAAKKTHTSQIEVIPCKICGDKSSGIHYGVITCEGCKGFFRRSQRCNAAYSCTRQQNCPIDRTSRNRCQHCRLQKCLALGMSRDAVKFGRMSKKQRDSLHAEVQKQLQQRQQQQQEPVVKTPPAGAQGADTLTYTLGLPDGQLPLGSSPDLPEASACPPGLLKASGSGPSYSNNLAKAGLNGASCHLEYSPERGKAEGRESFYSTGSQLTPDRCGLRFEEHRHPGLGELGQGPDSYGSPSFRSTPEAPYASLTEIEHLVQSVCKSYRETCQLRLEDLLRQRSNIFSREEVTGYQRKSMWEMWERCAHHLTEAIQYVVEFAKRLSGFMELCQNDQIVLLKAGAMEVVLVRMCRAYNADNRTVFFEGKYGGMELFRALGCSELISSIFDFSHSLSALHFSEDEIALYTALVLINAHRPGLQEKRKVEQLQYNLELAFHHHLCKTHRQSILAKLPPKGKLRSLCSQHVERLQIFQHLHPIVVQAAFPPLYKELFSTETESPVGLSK
Source text: HEK293T cells were transfected with Lipofectamine 8000 (ThermoFisher) strictly following the manufacturer’s instructions. Cotransfected HEK293T cells with RORα or RORγ plasmid and a reporter consisting of the G6Pase or FGF21 promoters upstream of a luciferase reporter gene. […] The Lumicycle instrument detects luminescence and records the numerical value.

Kinetic solubility test = assay type: physicochemical; conditions: water, 25 °C, kinetic from dmso stock
Source text: Solubility(μmol/L)=Areafiltered×DFfiltered/Areastd×DFstd×[std]×DFstd

[4] = ip, 10 mg/kg, 10 mg/kg IP, read-out: MRTInf_obs (mean retention time)
[5] = iv, 10 mg/kg, 10 mg/kg IV, read-out: MRTInf_obs

Compound	AUC/D ([1]; 10 mg/kg IP) [kg·ng·h/mL/mg]	AUC/D ([1]; 10 mg/kg IV) [kg·ng·h/mL/mg]	AUC ([1]; 10 mg/kg IP) [ng·h/mL]	Cmax ([1]; 10 mg/kg IP) [ng/mL]	Tmax ([1]; 10 mg/kg IP) [min]	half-life ([1]; 10 mg/kg IP) [min]	concentration at 8 h ([1]; 10 mg/kg IP) [ng/mL]	AUC ([1]; 10 mg/kg IV) [ng·h/mL]	Cmax ([1]; 10 mg/kg IV) [ng/mL]	Tmax ([1]; 10 mg/kg IV) [min]	half-life ([1]; 10 mg/kg IV) [min]	bioavailability ([1]; 10 mg/kg) [%]	MRT inf [1, 4] [min]	MRT inf [1, 5] [min]	activation of G6Pase and FGF21 transcription after RORα knockdown (RORα)	systemic toxicity (body weight changes) [2]	activity rhythm (amplitude) and total activity (C57 mice)	dose dependence of the enhancing effect on the amplitude of BMAL1 [3]	fluctuation degree (amplitude) of bioluminescence intensity [3]	period or phase of the bioluminescence [3]	also measured
O=C(Nc1ccc(C(OCO[C@@H]2O[C@H](CO)[C@H](O)[C@H](O)[C@H]2O)(C(F)(F)F)C(F)(F)F)cc1)c1ccc(C(F)(F)F)cc1 [Gala-SR]	607.73	817.62	6080	1310	30	206	202	8180	4990	30	149	~74.3	270	178	markedly hampered the activation	reduced systematic toxicity	significantly increased	increases with the dose	further enhanced	neither SR1078 nor Gala-SR treatment induced any obvious alterations	overall bioluminescence levels [3]: superior efficacy than SR1078; circadian rhythm amplitude, with β-glycosidase ([3]; Gala-SR + β-galactosidase (205 U/mg)): augmentation; circadian rhythm amplitude, with β-glycosidase inhibitor ([3]; Gala-SR + β-galactosidase inhibitor (26 mmol/L)): suppression; difference between Gala-SR and SR1078 in RORγ reporter luminescence (RORγ): no significant difference; luminescence intensity of G6Pase and FGF21 reporter genes (RORγ): significantly enhanced the luminescence intensity; solubility kinetic at 2 h (Kinetic solubility test): 282 µM (≈ 176 µg/mL)
O=C(Nc1ccc(C(O)(C(F)(F)F)C(F)(F)F)cc1)c1ccc(C(F)(F)F)cc1 [SR1078, reference compound]	190.962	254.24	1910	1810	30	58.2	2.96	2540	7130	30	58.8	~75.1	71.4	29.2	markedly hampered the activation	dose-dependent toxicity	significantly increased	difficult to further promote its efficacy	significant augmentation	neither SR1078 nor Gala-SR treatment induced any obvious alterations	MRTInf_obs (mean retention time) ([1]; 10 mg/kg IP, 10 mg/kg): 71.64 min; overall bioluminescence levels [3]: significantly elevated; luminescence intensity of G6Pase and FGF21 reporter genes (RORγ): significantly enhanced the luminescence intensity; solubility kinetic at 2 h (Kinetic solubility test): 4.15 µM (≈ 1.79 µg/mL)
